EC50 and inhibition data for 16 molecules are collected here from US10287267B2, “Isoquinolin-3-yl carboxamides and preparation and use thereof” (Samumed, LLC, priority 2016, dated 2019).

Bounds are passed on as bounds.

Test [1] concerns Wnt pathway (Sp5-Luc reporter, TCF/LEF binding sites) in SW480 colon carcinoma cells. Kind of test: Screening assay for Wnt activity: Sp5-Luc reporter gene assay.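 On all read-outs here: firefly luciferase luminescence read in stably transduced SW480 cells carrying the Sp5 promoter reporter with eight TCF/LEF sites, compounds given in 0.1% DMSO final.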 The test is classed as cell-based, human. The note with it: Homo sapiens; for EC50: Sp5-Luc reporter, SW480 cells, 36 to 48 hours; for inhibition at 10 µM: SW480, read-out: percent inhibition at 10 μM. On the technique in general: In a reporter assay the amount or activity of a reporter protein is the signal.
Protocol: The screening assay for Wnt activity is described as follows.
Following incubation, 15 μl of BriteLite Plus luminescence reagent (Perkin Elmer) was added to each well of the 384-well assay plates. The plates were placed on an orbital shaker for 2 min and then luminescence was quantified using the Envision (Perkin Elmer) plate reader.

The target of test [2] is recombinant DYRK1A kinase (Homo sapiens (Human), UniProt Q13627). The experiment in a line: DYRK1A kinase assay (Ser/Thr 18 peptide Z-lyte FRET).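 Further: Read-out is the coumarin to fluorescein emission ratio, referenced to unphosphorylated (0%) and phosphorylated (100%) Ser/Thr 18 peptide controls, values from dose-response curves by non-linear regression.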 In kind it is biochemical. The note with it: 30 μM ATP, 1 h room temperature.
A further test concerns the target recombinant GSK3β kinase (Homo sapiens (Human), UniProt P49841). The experiment in a line: GSK3β kinase assay (Ser/Thr 09 peptide Z-lyte FRET).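 Further: kinase activity read as coumarin to fluorescein emission ratio, 11-point threefold dilutions from 10 µM to 0.0003 µM in duplicate, unphosphorylated and phosphorylated peptide as 0% and 100% controls.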 As to conditions: 46 μM ATP, 1 h room temperature. In kind it is biochemical.
For test [3], the system named is Tau phosphorylation at Ser396 (pSer396). Kind of test: Tau phosphorylation assay (pSer396 ELISA / western blot) in SH-SY5Y cells.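 Further: EC50 for reduction of Tau pSer396 in lysed cells, measured by colorimetric ELISA or chemiluminescent western blot, both using the same pSer396 antibody.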 The test is classed as cell-based, human. As to conditions: Homo sapiens; SH-SY5Y cells, overnight (16-18 h) exposure; read-out: pSer396 Tau EC50.
Test [4] deals with SW480 colon carcinoma cells. Kind of test: Cell viability assay (CellTiter-Glo). The test is classed as cell-based, human. The note with it: Homo sapiens; for EC50: 96 h, SW480 cells, CellTiter-Glo, four days incubation; for inhibition at 10 µM: SW480, read-out: percent inhibition at 10 μM.
In test [5] the test system is α-smooth muscle actin (αSMA) positive LL29 cells. Kind of test: Inhibition of fibrotic process: αSMA in TGF-β1 treated primary human fibroblasts from IPF patients.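 On all read-outs here: controls were TGF-β1 stimulated wells with DMSO vehicle (positive) and cells given DMSO alone (negative), cultured in F12 medium with 1% fetal bovine serum.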 In kind it is cell-based. The note with it: Homo sapiens, Fibroblast; for EC50: 96 h, Table 8, LL29 fibroblasts from IPF patients, TGF-β1 20 ng/mL, 4 days, dose-response 10 μM to 0.94 nM; for inhibition at 10 µM: read-out: percent value in parentheses beside EC50 >10 μM.

The subject of the next test is IL-6. The experiment in a line: IL-6 inhibition in LPS-stimulated human peripheral blood mononuclear cells (HTRF).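 On all read-outs here: IL-6 detected by HTRF with an XL665- and Cryptate-labelled anti-IL-6 antibody pair, samples run in duplicate, EC50 obtained from a four-parameter Levenberg-Marquardt curve fit.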 In kind it is cell-based. The note with it: Homo sapiens, PBMC; for EC50: Table 9, huPBMCs, LPS 50 ng/mL, 22 hours, dose-response starting from 10 μM; for inhibition at 10 µM: read-out: percent value in parentheses beside EC50 >10 μM. (In TR-FRET formats the signal depends on donor and acceptor labels being close together.)

In general, EC50 refers to the concentration that produces a half-maximal response.

Sequence of recombinant GSK3β kinase (P49841 whole entry): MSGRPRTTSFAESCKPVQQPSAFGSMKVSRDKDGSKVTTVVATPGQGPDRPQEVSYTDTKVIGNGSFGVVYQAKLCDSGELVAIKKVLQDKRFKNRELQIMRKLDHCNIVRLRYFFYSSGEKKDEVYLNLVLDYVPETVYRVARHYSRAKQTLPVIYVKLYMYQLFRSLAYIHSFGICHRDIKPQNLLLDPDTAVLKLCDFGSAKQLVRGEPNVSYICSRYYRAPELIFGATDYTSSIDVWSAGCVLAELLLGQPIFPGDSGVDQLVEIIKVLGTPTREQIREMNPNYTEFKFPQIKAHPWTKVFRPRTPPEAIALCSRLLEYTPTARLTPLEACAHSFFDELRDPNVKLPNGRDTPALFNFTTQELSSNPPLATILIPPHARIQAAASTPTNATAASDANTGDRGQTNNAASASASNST
Protocol for IL-6: After 22 hour incubation, a mixture of anti-IL6 XL665 and anti-IL-6 Cryptate diluted in reconstitution buffer (Catalog #62IL6PEC, Cisbio Inc., Bedford, Mass.) was added to each well. […] All samples were processed in duplicate. […] EC50 was determined using software generated by Dotmatics Limited (Windhill Bishops Stortford Herts, UK) using the Levenberg-Marquardt 4 parameter fitting procedure with finite different gradients.

For `O=C(CN1CCOCC1)Nc1cc2cc(-c3cncs3)ccc2cn1` [Compound 773, 2-Morpholino-N-(6-(thiazol-5-yl)isoquinolin-3-yl)acetamide], the EC50 in test [1] was 6550 nM; in test [2] it was 3.8 nM; on recombinant GSK3β kinase, 219 nM; in test [3], 2200 nM; in test [4], more than 10000 nM; in test [5], more than 10000 nM. The midpoint of the response with IL-6, the EC50, lay at 3480 nM. Moreover, the figures for the inhibition at 10 µM in test [4] and in test [5] were 48.4% and 30.3%, respectively.

With `Cn1ncc(-c2ccc3cnc(NC(=O)C(C)(C)F)cc3c2)c1CN1CCCCC1` [Compound 784, 2-Fluoro-2-methyl-N-(6-(1-methyl-5-(piperidin-1-ylmethyl)-1H-pyrazol-4-yl)isoquinolin-3-yl)propanamide], the EC50 in test [1] is 5880 nM; in test [2], 10.8 nM; at recombinant GSK3β kinase, 133 nM; in test [3] it was 2200 nM; in test [4] it was more than 10000 nM; in test [5], more than 10000 nM. Besides, in the test with IL-6, the EC50 is more than 10000 nM. For the same molecule, the inhibition at 10 µM in test [4] came out at 39.7%; in test [5], 37.4%; with IL-6, 3.7%.

Consider `CCN(CC)CC(=O)Nc1cc2cc(-c3cnn(C)c3CN3CCCCC3)ccc2cn1` [Compound 785, 2-(Diethylamino)-N-(6-(1-methyl-5-(piperidin-1-ylmethyl)-1H-pyrazol-4-yl)isoquinolin-3-yl)acetamide], for which the concentration for a half-maximal effect (EC50) in test [1] is 2840 nM; in test [2] it was 10.1 nM; at recombinant GSK3β kinase it was 44 nM; in test [3], 485 nM; in test [4], 2860 nM; in test [5], 1170 nM. Also, in the test on IL-6, the EC50 amounted to 9150 nM.

For the molecule `Cn1ncc(-c2ccc3cnc(NC(=O)C4CC5(C4)CN(CCF)C5)cc3c2)c1CN1CCCCC1` [Compound 791, 2-(2-Fluoroethyl)-N-(6-(1-methyl-5-(piperidin-1-ylmethyl)-1H-pyrazol-4-yl)isoquinolin-3-yl)-2-azaspiro[3.3]heptane-6-carboxamide], the concentration giving a half-maximal response (EC50) in test [1] stood at 212 nM; in test [2], 2.2 nM; at recombinant GSK3β kinase, 5 nM; in test [3], 55 nM; in test [4], 137 nM; in test [5], 67 nM. A half-maximal effect with IL-6 (EC50) was put at 350 nM.

For `CO[C@H]1CC[C@H](C(=O)Nc2cc3cc(-c4cnn(C)c4CN4CCCCC4)ccc3cn2)CC1` [Compound 795, trans-4-Methoxy-N-(6-(1-methyl-5-(piperidin-1-ylmethyl)-1H-pyrazol-4-yl)isoquinolin-3-yl)cyclohexane-1-carboxamide], the EC50 in test [1] was found to be 471 nM; in test [2], 2.4 nM; on recombinant GSK3β kinase it was 33 nM; in test [3] it was 401 nM; in test [4], 806 nM; in test [5] it was 227 nM. This molecule also came in with an EC50 with IL-6 of 1220 nM.

In the case of `Cn1ncc(-c2ccc3cnc(NC(=O)[C@H]4CCCN4)cc3c2)c1CN1CCCCC1` [Compound 803, (R)—N-(6-(1-Methyl-5-(piperidin-1-ylmethyl)-1H-pyrazol-4-yl)isoquinolin-3-yl)pyrrolidine-2-carboxamide], the EC50 in test [1] is 3550 nM; in test [2], 12.6 nM; on recombinant GSK3β kinase it was 164 nM; in test [3] it was 3700 nM; in test [4] it was 4530 nM; in test [5], more than 10000 nM. Besides, in the test on IL-6, the midpoint of the response, the EC50, lay at 3320 nM. In test [5], the inhibition at 10 µM was 27.8%.

`CC(C)CN1CCC(C(=O)Nc2cc3cc(-c4cnn(C)c4CN4CCCCC4)ccc3cn2)CC1` [Compound 822, 1-isobutyl-N-(6-(1-methyl-5-(piperidin-1-ylmethyl)-1H-pyrazol-4-yl)isoquinolin-3-yl)piperidine-4-carboxamide]: the concentration for a half-maximal effect (EC50) in test [1] came to 517 nM; in test [2], 4.1 nM; on recombinant GSK3β kinase, 9 nM; in test [3] it was 247 nM; in test [4] it was 708 nM; in test [5], 212 nM. Besides, a half-maximal effect in the test with IL-6 (EC50) was put at 3260 nM.

For `Cn1ncc(-c2ccc3cnc(NC(=O)C4CCN(C5COC5)CC4)cc3c2)c1CN1CCCCC1` [Compound 826, N-(6-(1-Methyl-5-(piperidin-1-ylmethyl)-1H-pyrazol-4-yl)isoquinolin-3-yl)-1-(oxetan-3-yl)piperidine-4-carboxamide], the half-maximal effective concentration (EC50) in test [1] worked out at 603 nM; in test [2], 3.9 nM; on recombinant GSK3β kinase it was 7 nM; in test [3], 568 nM; in test [4], 897 nM; in test [5], 149 nM. In the test with IL-6, this molecule displayed a concentration giving a half-maximal response (EC50) of 3290 nM.

As to `Cn1ncc(-c2ccc3cnc(NC(=O)C4CCN(C(=O)c5ccccc5)CC4)cc3c2)c1CN1CCCCC1` [Compound 831, 1-Benzoyl-N-(6-(1-methyl-5-(piperidin-1-ylmethyl)-1H-pyrazol-4-yl)isoquinolin-3-yl)piperidine-4-carboxamide], the EC50 in test [1] amounted to 706 nM; in test [2], 3.2 nM; at recombinant GSK3β kinase, 10 nM; in test [3], 189 nM; in test [4] it was 911 nM; in test [5], 244 nM. The molecule also yielded a 50% effective concentration (EC50) with IL-6 of 812 nM.

`CC1CCN(CC(=O)Nc2cc3cc(-c4cnn(C)c4CN4CCCCC4)ccc3cn2)CC1` [Compound 851, N-(6-(1-Methyl-5-(piperidin-1-ylmethyl)-1H-pyrazol-4-yl)isoquinolin-3-yl)-2-(4-methylpiperidin-1-yl)acetamide]: the inhibition at 10 µM is 6.4% in test [1], 30.4% in test [4] and 2.9% in the test with IL-6. Besides, the half-maximal effective concentration (EC50) was more than 10000 nM in test [1]; 5010 nM in test [2]; 5000 nM at recombinant GSK3β kinase; 350 nM in test [3]; more than 10000 nM in test [4]; 692 nM in test [5]. In the test on IL-6, this molecule showed a 50% effective concentration (EC50) of more than 10000 nM.

Turning to `Cc1nnc(-c2ccc3cnc(NC(=O)C4(F)CCCCC4)cc3c2)s1` [Compound 883, 1-Fluoro-N-(6-(5-methyl-1,3,4-thiadiazol-2-yl)isoquinolin-3-yl)cyclohexane-1-carboxamide], the inhibition at 10 µM in test [1] was 43.2%; in test [4] it was 35.5%; in test [5], 14%; in the test with IL-6 it was 9.1%. Moreover, the EC50 in test [1] is more than 10000 nM; in test [2], 8.9 nM; on recombinant GSK3β kinase it was 76 nM; in test [3] it was 1100 nM; in test [4], more than 10000 nM; in test [5], more than 10000 nM. The molecule further yielded an EC50 in the test on IL-6 of more than 10000 nM.

Turning to `CO[C@H]1CC[C@H](C(=O)Nc2cc3cc(-c4nnc(C)s4)ccc3cn2)CC1` [Compound 885, trans-4-Methoxy-N-(6-(5-methyl-1,3,4-thiadiazol-2-yl)isoquinolin-3-yl) cyclohexane-1-carboxamide], the concentration giving a half-maximal response (EC50) in test [1] came to 4480 nM; in test [2], 34.6 nM; at recombinant GSK3β kinase, 46 nM; in test [3] it was 878 nM; in test [4] it was 7720 nM; in test [5], 2620 nM. For the same molecule, the concentration for a half-maximal effect (EC50) with IL-6 was more than 10000 nM. Besides, the inhibition at 10 µM in the test on IL-6 came out at 7%.

In the case of `Cc1nnc(-c2ccc3cnc(NC(=O)C4CCN(CCF)CC4)cc3c2)s1` [Compound 900, 1-(2-Fluoroethyl)-N-(6-(5-methyl-1,3,4-thiadiazol-2-yl)isoquinolin-3-yl) piperidine-4-carboxamide], the EC50 in test [1] was determined as 1010 nM; in test [2], 2.9 nM; at recombinant GSK3β kinase, 11 nM; in test [3] it was 180 nM; in test [4] it was 3880 nM; in test [5] it was 449 nM. In addition, the EC50 in the test with IL-6 was 9860 nM.

For `Cc1nnc(-c2ccc3cnc(NC(=O)C4CCN(C(=O)c5ccccc5)CC4)cc3c2)s1` [Compound 921, 1-Benzoyl-N-(6-(5-methyl-1,3,4-thiadiazol-2-yl)isoquinolin-3-yl)piperidine-4-carboxamide], the concentration giving a half-maximal response (EC50) in test [1] worked out at 779 nM; in test [2], 2.1 nM; on recombinant GSK3β kinase, 5 nM; in test [3], 109 nM; in test [4], 1620 nM; in test [5] it was 75 nM. The concentration for a half-maximal effect (EC50) in the test with IL-6 was more than 10000 nM. Also, the inhibition at 10 µM in the test on IL-6 came out at 9.9%.

As for `Cc1nnc(-c2ccc3cnc(NC(=O)CN4CCCC4)cc3c2)s1` [Compound 932, N-(6-(5-Methyl-1,3,4-thiadiazol-2-yl)isoquinolin-3-yl)-2-(pyrrolidin-1-yl) acetamide], the half-maximal effective concentration (EC50) in test [1] amounted to 946 nM; in test [2] it was 16.9 nM; on recombinant GSK3β kinase, 14 nM; in test [3] it was 357 nM; in test [4], 5450 nM; in test [5], 594 nM. In the test on IL-6, this molecule registered an EC50 of more than 10000 nM. Further, the inhibition at 10 µM with IL-6 came out at 7.5%.

Consider `Cc1nnc(-c2ccc3cnc(NC(=O)CN4CCCCC4)cc3c2)s1` [Compound 939, N-(6-(5-Methyl-1,3,4-thiadiazol-2-yl)isoquinolin-3-yl)-2-(piperidin-1-yl) acetamide], for which the EC50 in test [1] was 2070 nM; in test [2], 13.9 nM; at recombinant GSK3β kinase, 13 nM; in test [3] it was 274 nM; in test [4], more than 10000 nM; in test [5], 1140 nM. This molecule showed a concentration for a half-maximal effect (EC50) with IL-6 of more than 10000 nM. For the same molecule, the inhibition at 10 µM in test [4] came to 31.6%; in the test on IL-6, 3.6%.
